Where two headings read alike, the source gives them in different places. Numbered stars: 1 amine (or outer) side, 2 acyl side, 3 side chain; on linkers, the order of the positions; unused ones are H or OH. Square brackets hold non-standard residues; d marks the D form. Peptide text beside a SMILES is read from it. * marks the point of attachment. X14 = NCC(=O)N[C@@H]1C[C@@H](C(=O)[*:2])N([*:1])C1; X5 = NCCC(=O)N[C@@H]1C[C@@H](C(=O)[*:2])N([*:1])C1; X16 = CCN[C@@H]1C[C@@H](C(=O)[*:2])N([*:1])C1; Pro(4R-NH2) = N[C@H]1CN[C@H](C(=O)O)C1; X2 = O=C([C@H]1CCCN([*:1])C1)[*:2]; NMeL = CN[C@@H](CC(C)C)C(=O)O; dOrn = NCCC[C@@H](N)C(=O)O; Octanoyl = CCCCCCCC(=O)*; Api = NC1(C(=O)O)CCNCC1

This test concerns the target T1, NPR-B (Homo sapiens, UniProt P20594).
T1 construct: a functional assay using endogenously NPR-B expressing GTM-3 cells; endogenous in cells; host or cells: GTM-3 (human glaucoma trabecular meshwork cells)
T1 sequence (P20594 23-1047): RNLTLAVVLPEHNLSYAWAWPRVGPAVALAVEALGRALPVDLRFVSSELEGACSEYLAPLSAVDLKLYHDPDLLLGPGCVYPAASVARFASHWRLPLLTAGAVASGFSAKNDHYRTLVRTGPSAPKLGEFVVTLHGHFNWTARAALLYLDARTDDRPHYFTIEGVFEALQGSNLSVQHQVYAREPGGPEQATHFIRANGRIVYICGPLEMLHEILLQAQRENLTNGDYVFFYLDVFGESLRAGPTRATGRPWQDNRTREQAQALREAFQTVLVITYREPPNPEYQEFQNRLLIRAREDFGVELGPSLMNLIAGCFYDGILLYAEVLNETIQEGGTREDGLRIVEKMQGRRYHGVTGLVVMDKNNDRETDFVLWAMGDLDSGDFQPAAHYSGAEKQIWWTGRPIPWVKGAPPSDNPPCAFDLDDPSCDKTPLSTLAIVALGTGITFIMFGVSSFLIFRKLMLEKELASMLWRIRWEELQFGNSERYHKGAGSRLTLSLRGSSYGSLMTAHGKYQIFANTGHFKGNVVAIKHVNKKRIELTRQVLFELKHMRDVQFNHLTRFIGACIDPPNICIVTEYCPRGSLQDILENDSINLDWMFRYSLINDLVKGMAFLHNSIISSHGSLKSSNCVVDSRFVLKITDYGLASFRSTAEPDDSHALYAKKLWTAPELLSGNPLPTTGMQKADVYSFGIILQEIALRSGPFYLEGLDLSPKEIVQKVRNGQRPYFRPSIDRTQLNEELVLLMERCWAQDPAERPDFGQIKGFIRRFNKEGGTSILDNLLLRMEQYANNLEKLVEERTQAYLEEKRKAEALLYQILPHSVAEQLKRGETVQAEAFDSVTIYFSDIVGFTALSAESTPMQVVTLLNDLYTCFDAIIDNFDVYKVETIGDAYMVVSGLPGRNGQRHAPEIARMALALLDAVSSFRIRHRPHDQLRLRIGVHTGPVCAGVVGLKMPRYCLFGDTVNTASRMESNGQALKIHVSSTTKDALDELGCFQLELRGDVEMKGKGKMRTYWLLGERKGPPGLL
Description: NPR-B induced production of cyclic GMP in human glaucoma trabecular meshwork cells (GTM-3). It counts as cell-based.

[1] abbreviates: group by EC50 and Emax (CNP = 100%), Table 4, read-out: Activity (group), NPR-B activation assayed with GTM-3 cells.

As for `CCCCCCCCN1CCC[C@H](C(=O)N[C@@H](Cc2ccccc2)C(=O)N[C@H](CC(C)C)C(=O)N[C@@H](CC(C)C)C(=O)N2C[C@H](O)C[C@H]2C(=O)N(C)[C@@H](CC(C)C)C(=O)N[C@@H](CC(=O)O)C(=O)N[C@@H](CCCNC(=N)N)C(=O)N[C@H](C(N)=O)[C@@H](C)CC)C1` [JAL-1302, Oct-Sni-Phe-leu-Leu-Hyp-Nml-Asp-Arg-Ile-NH2] (HELM PEPTIDE1{[CCCCCCCCN1CCC[C@H](C(=O)[*:2])C1].F.[dL].L.[Hyp].[meL].D.R.I.[am]}$$$$V2.0), the EC50 under setting [1] was below 1000 nM. On the same count and under the same terms, to `CCCCCCCC(=O)N[C@H](C)C(=O)N[C@@H](Cc1ccccc1)C(=O)N[C@H](CCCNC(=N)N)C(=O)N[C@@H](CC(C)C)C(=O)N1C[C@H](O)C[C@H]1C(=O)N(C)[C@@H](CC(C)C)C(=O)N[C@@H](CC(=O)O)C(=O)N[C@@H](CCCNC(=N)N)C(=O)N[C@H](C(N)=O)C(C)(C)C` [JAL-1305, Occ-ala-Phe-arg-Leu-Hyp-Nml-Asp-Arg-Tbg-NH2] (HELM PEPTIDE1{[CCCCCCCC(=O)[*:2]].[dA].F.[dR].L.[Hyp].[meL].D.R.[CC(C)(C)[C@H](N[*:1])C(=O)[*:2]].[am]}$$$$V2.0) belongs below 1000 nM; to `CCCCCCCC(=O)N1CCC[C@H](C(=O)N[C@@H](Cc2ccccc2)C(=O)N[C@H](CCCNC(=N)N)C(=O)N[C@@H](CC(C)C)C(=O)N2C[C@H](N)C[C@H]2C(=O)N(C)[C@@H](CC(C)C)C(=O)N[C@@H](CC(=O)O)C(=O)N[C@@H](CCCNC(=N)N)C(=O)N[C@H](C(N)=O)[C@@H](C)CC)C1` [JAL-1317, Occ-Sni-Phe-arg-Leu-Tap-Nml-Asp-Arg-Ile-NH2] (Octanoyl-[X2]F[dR]L[Pro(4R-NH2)][NMeL]DRI-NH2), below 1000 nM; to `CCCCCCCC(=O)N1CCC[C@H](C(=O)N[C@@H](Cc2ccccc2)C(=O)N[C@H](CCCN)C(=O)N[C@@H](CC(C)C)C(=O)N2C[C@H](N)C[C@H]2C(=O)N(C)[C@@H](CC(C)C)C(=O)N[C@@H](CC(=O)O)C(=O)N[C@@H](CCCNC(=N)N)C(=O)N[C@H](C(N)=O)[C@@H](C)CC)C1` [JAL-1318, Occ-Sni-Phe-orn-Leu-Tap-Nml-Asp-Arg-Ile-NH2] (Octanoyl-[X2]F[dOrn]L[Pro(4R-NH2)][NMeL]DRI-NH2), below 1000 nM. As to `CCCCCCCC(=O)N1CCC[C@H](C(=O)N[C@@H](Cc2ccccc2)C(=O)NCC(=O)N[C@@H](CC(C)C)C(=O)N2C[C@H](N)C[C@H]2C(=O)N(C)[C@@H](CC(C)C)C(=O)N[C@@H](CC(=O)O)C(=O)N[C@@H](CCCNC(=N)N)C(=O)N[C@H](C(N)=O)[C@@H](C)CC)C1` [JAL-1320, Occ-Sni-Phe-Gly-Leu-Tap-Nml-Asp-Arg-Ile-NH2] (Octanoyl-[X2]FGL[Pro(4R-NH2)][NMeL]DRI-NH2), the EC50 is below 1000 nM. Regarding `CCCCCCCC(=O)N1CCC[C@H](C(=O)N[C@@H](Cc2ccccc2)C(=O)N[C@H](CC(C)C)C(=O)N[C@@H](CC(C)C)C(=O)N2C[C@H](NC(=O)CN)C[C@H]2C(=O)N(C)[C@@H](CC(C)C)C(=O)N[C@@H](CC(=O)O)C(=O)N[C@@H](CCCNC(=N)N)C(=O)N[C@H](C(N)=O)[C@@H](C)CC)C1` [JAL-1322, Occ-Sni-Phe-leu-Leu-Tap(G)-Nml-Asp-Arg-Ile-NH2] (Octanoyl-[X2]F[dL]L[X14][NMeL]DRI-NH2), under setting [1], the EC50 is below 1000 nM. Same read-out and setting: to `CCCCCCCC(=O)N1CCC[C@H](C(=O)N[C@@H](Cc2ccccc2)C(=O)N[C@H](CC(C)C)C(=O)N[C@@H](CC(C)C)C(=O)N2C[C@H](NC(=O)CCN)C[C@H]2C(=O)N(C)[C@@H](CC(C)C)C(=O)N[C@@H](CC(=O)O)C(=O)N[C@@H](CCCNC(=N)N)C(=O)N[C@H](C(N)=O)[C@@H](C)CC)C1` [JAL-1323, Occ-Sni-Phe-leu-Leu-Tap(Bal)-Nml-Asp-Arg-Ile-NH2] (Octanoyl-[X2]F[dL]L[X5][NMeL]DRI-NH2) belongs below 1000 nM; to `CCCCCCCCN1CCC[C@H](C(=O)N[C@@H](Cc2ccccc2)C(=O)N[C@H](CC(C)C)C(=O)N[C@@H](CC(C)C)C(=O)N2C[C@H](N)C[C@H]2C(=O)N(C)[C@@H](CC(C)C)C(=O)N[C@@H](CC(=O)O)C(=O)N[C@@H](CCCNC(=N)N)C(=O)N[C@H](C(N)=O)[C@@H](C)CC)C1` [JAL-1326, Oct-Sni-Phe-leu-Leu-Tap-Nml-Asp-Arg-Ile-NH2] (HELM PEPTIDE1{[CCCCCCCCN1CCC[C@H](C(=O)[*:2])C1].F.[dL].L.[N[C@@H]1C[C@@H](C(=O)[*:2])N([*:1])C1].[meL].D.R.I.[am]}$$$$V2.0), below 1000 nM. The same measure, in the same setting: to `CCCCCCCC(=O)N[C@H](C)C(=O)N[C@@H](Cc1ccccc1)C(=O)N[C@H](CC(C)C)C(=O)N[C@@H](CC(C)C)C(=O)N1C[C@H](O)C[C@H]1C(=O)N(C)[C@@H](CC(C)C)C(=O)N[C@H](C(=O)N[C@@H](CCCNC(=N)N)C(=O)N[C@H](C(N)=O)[C@@H](C)CC)C(C)C` [JAL-1332, Occ-ala-Phe-leu-Leu-Hyp-Nml-Val-Arg-Ile-NH2] (HELM PEPTIDE1{[CCCCCCCC(=O)[*:2]].[dA].F.[dL].L.[Hyp].[meL].V.R.I.[am]}$$$$V2.0) belongs below 1000 nM; to `CCCCCCCC(=O)N[C@H](C)C(=O)N[C@@H](Cc1ccccc1)C(=O)NC(C(=O)N[C@@H](CC(C)C)C(=O)N1C[C@H](O)C[C@H]1C(=O)N(C)[C@@H](CC(C)C)C(=O)N[C@@H](CC(=O)O)C(=O)N[C@@H](CCCNC(=N)N)C(=O)N[C@H](C(N)=O)[C@@H](C)CC)C1CCCNC1` (stereo partly drawn) [JAL-1336, Occ-ala-Phe-Fhy-Leu-Hyp-Nml-Asp-Arg-Ile-NH2] (HELM PEPTIDE1{[CCCCCCCC(=O)[*:2]].[dA].F.[O=C(C(N[*:1])C1CCCNC1)[*:2]].L.[Hyp].[meL].D.R.I.[am]}$$$$V2.0), below 1000 nM. Still for that read-out and setting: the result for `CCCCCCCC(=O)N[C@H](C)C(=O)N[C@@H](Cc1ccccc1)C(=O)NC1(C(=O)N[C@@H](CC(C)C)C(=O)N2C[C@H](O)C[C@H]2C(=O)N(C)[C@@H](CC(C)C)C(=O)N[C@@H](CC(=O)O)C(=O)N[C@@H](CCCNC(=N)N)C(=O)N[C@H](C(N)=O)[C@@H](C)CC)CCNCC1` [JAL-1338, Occ-ala-Phe-Apc-Leu-Hyp-Nml-Asp-Arg-Ile-NH2] (HELM PEPTIDE1{[CCCCCCCC(=O)[*:2]].[dA].F.[O=C(C1(N[*:1])CCNCC1)[*:2]].L.[Hyp].[meL].D.R.I.[am]}$$$$V2.0) reads below 1000 nM.

Consider `CCCCCCCC(=O)N1CCC[C@H](C(=O)N[C@@H](Cc2ccccc2)C(=O)N[C@H](CC(C)C)C(=O)N[C@@H](CC(C)C)C(=O)N2C[C@H](NCC)C[C@H]2C(=O)N(C)[C@@H](CC(C)C)C(=O)N[C@@H](CC(=O)O)C(=O)N[C@@H](CCCNC(=N)N)C(=O)N[C@H](C(N)=O)[C@@H](C)CC)C1` [JAL-1349, Occ-Sni-Phe-leu-Leu-Tap(Et)-Nml-Asp-Arg-Ile-NH2] (Octanoyl-[X2]F[dL]L[X16][NMeL]DRI-NH2), for which the EC50 under setting [1] is below 1000 nM.

Take `CCCCCCCC(=O)N1CCC[C@H](C(=O)N[C@@H](Cc2ccccc2)C(=O)NC2(C(=O)N[C@@H](CC(C)C)C(=O)N3C[C@H](N)C[C@H]3C(=O)N(C)[C@@H](CC(C)C)C(=O)N[C@@H](CC(=O)O)C(=O)N[C@@H](CCCNC(=N)N)C(=O)N[C@H](C(N)=O)[C@@H](C)CC)CCNCC2)C1` [JAL-1351, Occ-Sni-Phe-Apc-Leu-Tap-Nml-Asp-Arg-Ile-NH2] (Octanoyl-[X2]F[Api]L[Pro(4R-NH2)][NMeL]DRI-NH2): under setting [1], the EC50 is below 1000 nM. `CCCCCCCC(=O)N[C@H](C)C(=O)N[C@@H](Cc1ccccc1)C(=O)N[C@H](CC(C)C)C(=O)N[C@@H](CC(C)C)C(=O)N1C[C@H](O)C[C@H]1C(=O)N(C)[C@@H](CC(C)C)C(=O)N[C@@H](CC(=O)O)C(=O)N[C@@H](CCCNC(=N)N)C(=O)N[C@H](C(N)=O)C(C)(C)C` [JAL-1352, Occ-ala-Phe-leu-Leu-Hyp-Nml-Asp-Arg-Tbg-NH2] (HELM PEPTIDE1{[CCCCCCCC(=O)[*:2]].[dA].F.[dL].L.[Hyp].[meL].D.R.[CC(C)(C)[C@H](N[*:1])C(=O)[*:2]].[am]}$$$$V2.0): the EC50 under setting [1] is below 1000 nM.

With `CCCCCCCC(=O)N[C@H](C)C(=O)N[C@@H](Cc1ccccc1)C(=O)N[C@H](CC(C)C)C(=O)N[C@@H](CC(C)C)C(=O)N1C[C@H](O)C[C@H]1C(=O)N(C)[C@@H](CC(C)C)C(=O)N[C@@H](CC(=O)O)C(=O)N[C@@H](CCCNC(=N)N)C(=O)NC1(C(N)=O)CCCCC1` [JAL-1358, Occ-ala-Phe-leu-Leu-Hyp-Nml-Asp-Arg-Egz-NH2] (HELM PEPTIDE1{[CCCCCCCC(=O)[*:2]].[dA].F.[dL].L.[Hyp].[meL].D.R.[O=C(C1(N[*:1])CCCCC1)[*:2]].[am]}$$$$V2.0), the EC50 under setting [1] is below 1000 nM.

(Values after patent US9822147B2, “Methods of treating ophthalmic diseases using NPR-B agonists” (priority 2009, dated 2017).)
